From US20090036434A1, “Substituted aryl and heteroaryl derivatives as modulators of metabolism and the prophylaxis and treatment of disorders related thereto” (Arena Pharmaceuticals, Inc., priority 2004, published 2009)

Key:
[1] = target: T1, RUP3 (Homo sapiens, UniProt Q8TDV5); assay: Melanophore dispersion assay, RUP3 dose responses; assay type: cell-based; conditions: melanophores transfected with RUP3 expression vector
T1 construct: expressed in transfected cells; host or cells: melanophores (cultured per Potenza and Lerner 1992), electroporated with the RUP3 expression vector (pCMV)
T1 sequence (Q8TDV5 1-335): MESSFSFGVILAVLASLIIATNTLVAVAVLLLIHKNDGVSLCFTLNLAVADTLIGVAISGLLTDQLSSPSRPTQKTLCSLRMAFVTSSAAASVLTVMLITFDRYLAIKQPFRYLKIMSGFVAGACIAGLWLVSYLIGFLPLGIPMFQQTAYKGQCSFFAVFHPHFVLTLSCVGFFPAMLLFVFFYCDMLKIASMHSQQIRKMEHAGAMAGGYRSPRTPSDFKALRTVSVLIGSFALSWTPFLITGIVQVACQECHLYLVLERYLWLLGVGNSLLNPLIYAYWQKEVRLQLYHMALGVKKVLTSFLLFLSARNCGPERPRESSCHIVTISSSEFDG
Method: Melanophores are maintained in culture as reported by Potenza, M. N. and Lerner, M. R., in Pigment Cell Research, Vol. 5, 372-378, 1992 and transfected with the RUP3 expression vector (pCMV) using electroporation. Following electroporation, the transfected cells are plated into 96 well plates for the assay. The cells are then allowed to grow for 48 hours in order to both recover from the electroporation procedure and attain maximal receptor expression levels.
On the assay day, the growth medium on the cells is replaced with serum-free buffer containing 10 nM melatonin. The melatonin acts via an endogenous Gi-coupled GPCR in the melanophores to lower intracellular cAMP levels. In response to lowered cAMP levels, the melanophores translocate their pigment to the center of the cell. The net effect of this is a significant decrease in the absorbance reading of the cell monolayer in the well, measured at […].
After a 1-hour incubation in melatonin, the cells become completely pigment-aggregated. At this point a baseline absorbance reading is collected. Serial dilutions of test compounds are then added to the plate and compounds that stimulate RUP3 produce increases in intracellular cAMP levels. In response to these increased cAMP levels, the melanophores translocate their pigment back into the cell periphery. After one hour, stimulated cells are fully pigment-dispersed. The cell monolayer in the dispersed state absorbs much more light in the 600-650 nm range. The measured increase in absorbance compared to the baseline reading allows one to quantitate the degree of receptor stimulation and plot a dose-response curve.
The compounds in the above examples were screened using the melanophore dispersion assay, as described above.

[2] = target: T2, RUP3 (Mus musculus, UniProt Q7TQP3); assay: Oral glucose tolerance test (oGTT) in mice; assay type: in vivo; conditions: for Mean % Inhibition of Glucose Excursion: male C57bl/6J mice, dextrose 3 g/Kg oral; for Blood glucose after glucose challenge: male C57bl/6J mice, 1, 3 or 10 mg/Kg p.o.
T2 construct: randomly grouped (n=5) to receive a RUP3 agonist (either Compound B3 or B124); from tissue; host or cells: whole animal (male C57bl/6J mice), in vivo
T2 sequence (Q7TQP3 1-335): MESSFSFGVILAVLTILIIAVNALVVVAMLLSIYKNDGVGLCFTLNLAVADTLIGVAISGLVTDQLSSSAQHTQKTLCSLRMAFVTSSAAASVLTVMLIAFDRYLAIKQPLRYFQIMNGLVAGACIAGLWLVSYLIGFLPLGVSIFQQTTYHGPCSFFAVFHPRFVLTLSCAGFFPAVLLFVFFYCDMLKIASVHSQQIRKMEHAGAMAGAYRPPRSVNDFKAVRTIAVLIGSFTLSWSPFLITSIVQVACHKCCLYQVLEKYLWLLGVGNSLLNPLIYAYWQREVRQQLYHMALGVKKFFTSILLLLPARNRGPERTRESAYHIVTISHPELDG
Method: Male C57bl/6J mice at approximately 8 weeks of age were fasted for 18 hours and randomly grouped (n=5) to receive a RUP3 agonist (either Compound B3 or B124) at 1, 3 or 10 mg/Kg. Compounds were delivered orally via a gavage needle (p.o., volume 10 mL/Kg). At time 0, levels of blood glucose were assessed using a glucometer (Elite XL, Bayer), and mice were administered either vehicle (20% hydroxypropyl-beta-cyclodextrin) or test compound. Thirty minutes after administration of test compound, levels of blood glucose were again assessed, and mice were administered dextrose orally at a dose of 3 g/Kg. Blood glucose measurements were then taken 20 min, 40 min, 60 min and 120 min after this time.

EC50 [1] [nM]	Structure (SMILES)	Mean % Inhibition of Glucose Excursion ([2]; 1 mg/Kg p.o.) [%]	Mean % Inhibition of Glucose Excursion ([2]; 3 mg/Kg p.o.) [%]	Mean % Inhibition of Glucose Excursion ([2]; 10 mg/Kg p.o.) [%]	Blood glucose after glucose challenge [2]
128	COc1ccc(Nc2cc(OC3CCN(C(=O)OC(C)(C)C)CC3)ncn2)cc1F [Compound B21, 4-[6-(3-Fluoro-4-methoxy-phenylamino)-pyrimidin-4-yloxy]-piperidine-1-carboxylic acid tert-butyl ester]	–	–	–	–
48	CC(C)OC(=O)N1CCC(Oc2cc(Oc3ccc(Br)cc3F)ncn2)CC1 [Compound B143, 4-[6-(4-Bromo-2-fluoro-phenoxy)-pyrimidin-4-yloxy]-piperidine-1-carboxylic acidisopropyl ester]	–	–	–	–

The remaining lines, values behind:

Structure (SMILES)	EC50 [1] [nM]	Mean % Inhibition of Glucose Excursion ([2]; 1 mg/Kg p.o.) [%]	Mean % Inhibition of Glucose Excursion ([2]; 3 mg/Kg p.o.) [%]	Mean % Inhibition of Glucose Excursion ([2]; 10 mg/Kg p.o.) [%]	Blood glucose after glucose challenge [2]
CC(C)OC(=O)N1CCC(Oc2cc(Nc3ccc(S(C)(=O)=O)cc3F)ncn2)CC1 [Compound B3, 4-[6-(2-Fluoro-4-methanesulfonyl-phenylamino)-pyrimidin-4-yloxy]-piperidine-1-carboxylic acid isopropyl ester]	–	14.83	22.03	39.31	lowered blood glucose in a dose-dependent manner
CCCNc1ccc(Nc2cc(OC3CCN(C(=O)OC(C)C)CC3)ncn2)c(C)c1 [Compound B124, 4-[6-(2-Methyl-4-propylamino-phenylamino)-pyrimidin-4-yloxy]-piperidine-1-carboxylic acid isopropyl ester]	–	0	5.49	21.94	lowered blood glucose in a dose-dependent manner
Cc1ccc(Nc2cc(OC3CCN(C(=O)OC(C)(C)C)CC3)ncn2)cc1F [Compound B16, 4-[6-(3-Fluoro-4-methyl-phenylamino)-pyrimidin-4-yloxy]-piperidine-1-carboxylic acid tert-butyl ester]	62	–	–	–	–
